Test [1] concerns unselective cation channels (UCC). Description: Thapsigargin (0.1 μM) stimulated Ca^2+ entry through unselective cation channels in fura-2-charged RBL-hm 1 cells. The class given is cell-based, rat. Conditions: for % Inhibition: RBL-hm 1 cells, Thapsigargin (0.1 μM) stimulation, 10 μM test substance (Table 21). From the text: As a measurement of the cell activation or as a measurement of the inhibition thereof by UCC blockers, the kinetics of the cytoplasmic calcium ion concentration in fura-2-charged cells is quantified fluorometrically using the method described by GRYNKIEWICZ et al. (1985).
Consequently the Ca^2+ -stores are rapidly depleted. As described by J. PUTNEY (Calcium, 11, 611-624, 1990) the depletion of these stores constitutes the physiological stimulation for opening up unselective cation channels in the cell membrane. The result of this is a massive influx of Na^+ and Ca^2+ into the cell. Because of these properties, Thapsigargin is suitable as an indirect stimulator for agonist- and IP3-independent opening up of the unselective cation channels.
The functional endothelin antagonism of the substances according to the invention is mediated through a blockade of the unselective cation channels. Consequently, detection of a functional Thapsigargin-antagonism on RBL-hm1 cells is also a suitable screening method for functional endothelin antagonists.
For screening purposes, fura-2-charged adhesive RBL-hm 1 cells are stimulated with 0.1 μM Thapsigargin in a Ca^2+ -free incubation medium. After 4 minutes, extracellular Ca^2+ is restored to a concentration of 1.5 mM and, using the fura-2-fluorescence, the excessive increase in the cytoplasmic Ca^2+ -concentration caused by a massive transmembranal Ca^2+ -entry through unselective cation channels is recorded.
This entry is to be inhibited solely by unselective cation channel blockers in a dosage-dependent manner. Neither conventional calcium antagonists nor specific blockers of agonists which stimulate the IP3 -turnover are able to inhibit the transmembranal Ca^2+ -entry triggered indirectly by Thapsigargin. The compounds of the present invention are distinguished by their inhibition of UCC.
The fluorometric calcium measurement in the cytoplasm of individual adhering RBL-hm1 cells is carried out analogously to the method described by KUDO and OGURA (1986) for neuronal cells. An AXIOVERT 35 fluorescence microscope made by ZEISS is used in conjunction with an imaging system made by HAMAMATSU, consisting of the ICMS-image processing system, residual light camera with control unit and image intensifier DVS 3000.
The kinetics of the cytoplasmic Ca^2+ -concentration is recorded continuously as a concentration/time curve after the cell activation stimulated by Thapsigargin (0.1 μM). The curves of two activated cell cultures are compared in the presence and absence of 10 μM test substance. The area under these curves (area under the curve=AUC) is integrated and recorded as a measurement of cell activation. The inhibitory potency of the UCC-blockers tested is determined using the following equation: [formula] %H=the percentage inhibition of the calcium entry through unselective cation channels which is stimulated and inhibited by 10 μM of test substance.
AUCinh =area under the curve recorded in the presence of the stimulant plus 10 μM inhibitory test substance.
AUCcontrol =area under the curve which is recorded only after the addition of the stimulant.
The percentage inhibition of UCC after Thapsigargin stimulation (0.1 μM Thapsigargin) in RBL-hm 1 cells is given. The uniform concentration of the test substances is 10^-5 mol).

Test [2] has the same test system. Described as above. The class given is cell-based, rat.
The subject of test [3] is Ca^2+-ATPase of intracellular IP3-sensitive Ca^2+-stores. The settings on record: in words; cited from earlier work.
Another test deals with RBL-2H3-cells. Put plainly: DNP-BSA antigen-induced activation of sensitised RBL-2H3 cells. Conditions: Rattus norvegicus, read-out: inhibition of the antigen-induced cell activation. It counts as cell-based. The method, then: Individual RBL-2H3-cells (a tumour cell line related to the mast cells) adhering to glass slides are used.
The cultivation and attachment of the RBL-2H3-cells are carried out by the method described by HIDE and BEAVEN (1991). In order to sensitise the adhesive RBL-2H3-cells the cells are incubated for 2 hours at ambient temperature with a 1:2000 diluted commercial gammaglobulin E-solution against a dinitrophenol-bovine serum albumin complex (DNP-BSA-antigen). The cells are then washed. By the addition of 0.1 ml of DNP-BSA-solution (10 μg/ml) there is a massive immunological cell activation which is mediated by a cytoplasmic Ca^2+ -overload. The fluorometric calcium measurement in the cytoplasm of individual adhering RBL-2H3-cells is carried out analogously to the method described by KUDO and OGURA (1986) for neuronal cells, which is also explained hereinbefore in this specification.

One may read the IC50 as the concentration needed to halve the response being measured. Low values mean greater potency in that assay, high ones weaker potency in that assay. For orientation: inhibition means the percentage by which the read-out fell short of the control. The term % Inhibition denotes how much of the control response was suppressed. Read a low % Inhibition as a weak effect.

For the compound `COc1cc2c(cc1OC)C(C(C(=O)NCCC(C)(C)C)c1ccccc1)=NCC2` (stereo not drawn), the “percent inhibition of Ca2+ entry” value in test [1] (Table 17, 10 μM test substance) is listed as 80.97%. Moreover, 7.57 µM corresponded to half-maximal inhibition in test [2] (Table 17) (IC50). With `COc1cc2c(cc1O)CCN=C2C(C(=O)N(CCc1ccc(OC)c(OC)c1OC)CCc1ccc(OC)c(OC)c1OC)c1ccccc1` (stereo not drawn), the “percent inhibition of Ca2+ entry” value in test [1] (Table 20, 10 μM test substance) was found to be 86.70%. Also, half-maximal inhibition in test [2] (Table 20) (IC50) required 3.47 µM. Take `C/C=C(/C)C(=O)O[C@H]1C(C)=C2[C@H]([C@@H]1OC(=O)CCCCCCC)[C@@](C)(OC(C)=O)C[C@H](OC(=O)CCC)[C@@]1(O)[C@H]2OC(=O)[C@@]1(C)O` [THAPSIGARGIN]: the “inhibition of Ca^2+-ATPase” value in test [3] was “selectively and irreversibly inhibits”.

In the case of `O=C(O)c1cc(=O)c2c(OCC(O)COc3cccc4oc(C(=O)O)cc(=O)c34)cccc2o1` [chromoglycate], the inhibition at 10 µM in the test on RBL-2H3-cells is about 50%. With `CCOc1ccccc1CCCNC(=O)C(C1=NCCc2cc(OC)c(OC)cc21)c1ccccc1` (stereo not drawn) [compound 115], in test [1], the “% Inhibition” value turned out to be 75.53%. Take `COc1cc2c(cc1OC)C(=C(C(=O)NCC13CC4CC(CC(C4)C1)C3)c1ccccc1)NCC2` [compound 132]: the “% Inhibition” value in test [1] was 65.14%.

In the case of `COc1cc(N=[N+]=[N-])ccc1CCNC(=O)C(C1=NCCc2cc(OC)c(OC)cc21)c1ccccc1` (stereo not drawn) [compound 133], the “% Inhibition” value in test [1] was found to be 68.15%. Take `O=C(NCCc1cccc(C(F)(F)F)c1)C(C1=NCCc2cc(OCc3ccccc3)c(Cl)cc21)c1ccccc1` (stereo not drawn) [drawing 223]: the “%” value in test [1] (Table 16, %inhibition, 10 μM test substance) stood at 32.90%.

Consider `COc1cc(N=[N+]=[N-])ccc1CCNC(=O)C(C1=NCCc2cc(OC)c(OC)cc21)c1ccccc1` (stereo not drawn) [drawing 231], for which, in test [1] (Table 17, 10 μM test substance), the “percent inhibition of Ca2+ entry” value is 68.2%. For the compound `O=C(NCCc1cccc(C(F)(F)F)c1)C(C1=NCCc2cc(OCc3ccccc3)c(Cl)cc21)c1ccccc1` (stereo not drawn) [drawing 274], the “percent inhibition of Ca2+ entry” value in test [1] (Table 20, 10 μM test substance) is 32.9%.
